These results are taken from article PMC5218480 (PLoS ONE, 2017).

The subject of the assay is MV-4-11 cells. Kind of assay: Gene expression microarray analysis (Affymetrix PrimeView) and GSEA. Also on record: RFU PODN (11730768_x_at) / Fold change /veh PODN (11730768_x_at) / RFU LINC00158 (11744669_a_at) / Fold change /veh LINC00158 (11744669_a_at) / RFU DUSP10 (11751237_a_at) / Fold change /veh DUSP10 (11751237_a_at) / RFU ID3 (11757404_x_at) / Fold change /veh ID3 (11757404_x_at) / RFU PLEKHG5 (11737974_s_at) / Fold change /veh PLEKHG5 (11737974_s_at) / RFU LRRC4B (11730491_at) / Fold change /veh LRRC4B (11730491_at) / RFU GIMAP4 (11747438_a_at) / Fold change /veh GIMAP4 (11747438_a_at) / RFU KRT8 (11758183_x_at) / Fold change /veh KRT8 (11758183_x_at) / RFU CNN1 (11734310_a_at) / Fold change /veh CNN1 (11734310_a_at) / RFU VPS37D (11726825_at) / Fold change /veh VPS37D (11726825_at) / RFU C10orf10 (11716522_x_at) / Fold change /veh C10orf10 (11716522_x_at) / RFU KIR2DL2 /// KIR2DL4 /// KIR2DL5A /// KIR2DL5B /// KIR2DS1 /// KIR2DS2 /// KIR2DS3 /// KIR2DS4 /// KIR3DL3 /// KIR3DL3 /// KIR3DS1 (11738374_at) / Fold change /veh KIR2DL2 /// KIR2DL4 /// KIR2DL5A /// KIR2DL5B /// KIR2DS1 /// KIR2DS2 /// KIR2DS3 /// KIR2DS4 /// KIR3DL3 /// KIR3DL3 /// KIR3DS1 (11738374_at) / RFU C1QL1 (11718748_at) / Fold change /veh C1QL1 (11718748_at) / RFU TMPRSS4 (11747572_a_at) / Fold change /veh TMPRSS4 (11747572_a_at) / RFU HAMP (11756126_x_at) / Fold change /veh HAMP (11756126_x_at) / RFU RNFT2 (11725882_a_at) / Fold change /veh RNFT2 (11725882_a_at) / RFU NR4A2 (11747474_a_at) / Fold change /veh NR4A2 (11747474_a_at) / RFU ABCC12 (11746883_a_at) / Fold change /veh ABCC12 (11746883_a_at) / RFU TMEM136 (11760407_x_at) / Fold change /veh TMEM136 (11760407_x_at) / RFU CLDN22 /// WWC2 (11732394_at) / Fold change /veh CLDN22 /// WWC2 (11732394_at) / RFU HLA-DPB1 (11760878_x_at) / Fold change /veh HLA-DPB1 (11760878_x_at) / RFU SPINT1 (11716480_a_at) / Fold change /veh SPINT1 (11716480_a_at) / RFU GAP43 (11754022_s_at) / Fold change /veh GAP43 (11754022_s_at) / RFU A4GNT (11735810_at) / Fold change /veh A4GNT (11735810_at) / RFU PRB3 (11715151_x_at) / Fold change /veh PRB3 (11715151_x_at) / RFU TUBB4B (11761932_at) / Fold change /veh TUBB4B (11761932_at) / RFU CAPN14 (11732068_a_at) / Fold change /veh CAPN14 (11732068_a_at) / RFU TMCC2 (11721928_a_at) / Fold change /veh TMCC2 (11721928_a_at) / RFU IRGQ (11745062_a_at) / Fold change /veh IRGQ (11745062_a_at) / RFU FAM174B (11720279_a_at) / Fold change /veh FAM174B (11720279_a_at) / RFU TMPRSS4 (11748680_a_at) / Fold change /veh TMPRSS4 (11748680_a_at) / RFU FAM212B (11763350_a_at) / Fold change /veh FAM212B (11763350_a_at) / RFU PLEKHG5 (11743358_a_at) / Fold change /veh PLEKHG5 (11743358_a_at) / RFU ZSCAN30 (11745921_a_at) / Fold change /veh ZSCAN30 (11745921_a_at) / RFU CMKLR1 (11741424_a_at) / Fold change /veh CMKLR1 (11741424_a_at) / RFU LOC101060620 /// MAPK8IP1 (11723275_at) / Fold change /veh LOC101060620 /// MAPK8IP1 (11723275_at) / RFU SPTSSB (11747773_x_at) / Fold change /veh SPTSSB (11747773_x_at) / RFU PRSS12 (11739890_at) / Fold change /veh PRSS12 (11739890_at) / RFU BIN1 (11741810_x_at) / Fold change /veh BIN1 (11741810_x_at) / RFU WNT11 (11732464_a_at) / Fold change /veh WNT11 (11732464_a_at) / RFU C10orf10 (11716521_a_at) / Fold change /veh C10orf10 (11716521_a_at) / RFU C5orf56 (11738089_at) / Fold change /veh C5orf56 (11738089_at) / RFU CYB561 (11721691_x_at) / Fold change /veh CYB561 (11721691_x_at) / RFU ANKRD19P (11752326_a_at) / Fold change /veh ANKRD19P (11752326_a_at) / RFU OR2T12 /// OR2T33 /// OR2T8 (11738714_s_at) / Fold change /veh OR2T12 /// OR2T33 /// OR2T8 (11738714_s_at) / RFU VCAN (11748164_a_at) / Fold change /veh VCAN (11748164_a_at) / RFU JSRP1 (11732532_at) / Fold change /veh JSRP1 (11732532_at) / RFU KRTAP10-11 (11738290_x_at) / Fold change /veh KRTAP10-11 (11738290_x_at) / RFU MYO3A (11730013_a_at) / Fold change /veh MYO3A (11730013_a_at) / RFU EBF3 (11725865_a_at) / Fold change /veh EBF3 (11725865_a_at) / RFU CAMK2N1 (11719241_x_at) / Fold change /veh CAMK2N1 (11719241_x_at) / RFU C5orf56 (11738088_a_at) / Fold change /veh C5orf56 (11738088_a_at) / RFU OLFML3 (11715873_a_at) / Fold change /veh OLFML3 (11715873_a_at) / RFU LOC100653217 /// NTM (11731650_a_at) / Fold change /veh LOC100653217 /// NTM (11731650_a_at) / RFU MAPK11 (11762145_a_at) / Fold change /veh MAPK11 (11762145_a_at) / RFU FIZ1 (11724087_x_at) / Fold change /veh FIZ1 (11724087_x_at) / RFU OASL (11726364_x_at) / Fold change /veh OASL (11726364_x_at) / RFU SOX15 (11748057_x_at) / Fold change /veh SOX15 (11748057_x_at) / RFU CD79A (11719716_a_at) / Fold change /veh CD79A (11719716_a_at) / RFU HIST1H1D (11736915_at) / Fold change /veh HIST1H1D (11736915_at) / RFU CASKIN2 (11723855_a_at) / Fold change /veh CASKIN2 (11723855_a_at) / RFU LOC730098 (11760151_x_at) / Fold change /veh LOC730098 (11760151_x_at) / RFU OR4N2 (11742367_at) / Fold change /veh OR4N2 (11742367_at) / RFU PRRT2 (11749266_a_at) / Fold change /veh PRRT2 (11749266_a_at) / RFU SNX32 (11753110_a_at) / Fold change /veh SNX32 (11753110_a_at) / RFU CDHR5 (11726645_a_at) / Fold change /veh CDHR5 (11726645_a_at) / RFU RCAN1 (11760418_a_at) / Fold change /veh RCAN1 (11760418_a_at) / RFU FAM167A (11723789_a_at) / Fold change /veh FAM167A (11723789_a_at) / RFU FAM26E (11764081_at) / Fold change /veh FAM26E (11764081_at) / RFU ISYNA1 (11749810_s_at) / Fold change /veh ISYNA1 (11749810_s_at) / RFU ACY1 (11761880_at) / Fold change /veh ACY1 (11761880_at) / RFU 11764098_at / Fold change /veh 11764098_at / RFU SAMD14 (11745864_x_at) / Fold change /veh SAMD14 (11745864_x_at) / RFU NPB (11741838_a_at) / Fold change /veh NPB (11741838_a_at) / RFU TMPRSS6 (11731388_a_at) / Fold change /veh TMPRSS6 (11731388_a_at) / RFU KRTAP10-2 (11738614_at) / Fold change /veh KRTAP10-2 (11738614_at) / RFU ARHGAP8 /// PRR5-ARHGAP8 (11727945_x_at) / Fold change /veh ARHGAP8 /// PRR5-ARHGAP8 (11727945_x_at) / RFU KRTAP5-7 /// NADSYN1 (11734609_at) / Fold change /veh KRTAP5-7 /// NADSYN1 (11734609_at) / RFU RASL12 (11751679_a_at) / Fold change /veh RASL12 (11751679_a_at) / RFU CDKN2B (11736163_a_at) / Fold change /veh CDKN2B (11736163_a_at) / RFU PRF1 (11729649_at) / Fold change /veh PRF1 (11729649_at) / RFU, ZNF638 /// ZNF638-IT1 / Fold change vs veh, ZNF638 /// ZNF638-IT1 / RFU, PANK3 / Fold change vs veh, PANK3 / RFU, SH3YL1 / Fold change vs veh, SH3YL1 / RFU, ZEB2 / Fold change vs veh, ZEB2 / RFU, NRIP1 / Fold change vs veh, NRIP1 / RFU, PTTG1IP / Fold change vs veh, PTTG1IP / RFU, CAPN2 / Fold change vs veh, CAPN2 / RFU, MED14 / Fold change vs veh, MED14 / RFU, SNORA58 / Fold change vs veh, SNORA58 / RFU, C1orf63 / Fold change vs veh, C1orf63 / RFU, LRRFIP1 / Fold change vs veh, LRRFIP1 / RFU, NDUFAF7 / Fold change vs veh, NDUFAF7 / RFU, SLC12A2 / Fold change vs veh, SLC12A2 / RFU, IBTK / Fold change vs veh, IBTK / RFU, ESF1 / Fold change vs veh, ESF1 / Fold change vs veh, TMEM50B / RFU, TAOK1 / Fold change vs veh, TAOK1 / RFU, ACBD3 / Fold change vs veh, ACBD3 / RFU, TMA16 / Fold change vs veh, TMA16 / RFU, RWDD3 / Fold change vs veh, RWDD3 / RFU, BCAT1 / Fold change vs veh, BCAT1 / RFU, EDEM3 / Fold change vs veh, EDEM3 / RFU, TMEM33 / Fold change vs veh, TMEM33 / RFU, WDR75 / Fold change vs veh, WDR75 / RFU, AHCTF1 / Fold change vs veh, AHCTF1 / RFU, TFRC / Fold change vs veh, TFRC / RFU, ZDHHC17 / Fold change vs veh, ZDHHC17 / RFU, NOM1 / Fold change vs veh, NOM1 / RFU, ARL8B / Fold change vs veh, ARL8B / RFU, ZBTB11 / Fold change vs veh, ZBTB11 / RFU, TAMM41 / Fold change vs veh, TAMM41 / RFU, KIAA1704 /// LOC100996395 / Fold change vs veh, KIAA1704 /// LOC100996395 / RFU, ING1 / Fold change vs veh, ING1 / RFU, TRMT61B / Fold change vs veh, TRMT61B / RFU, FUBP3 / Fold change vs veh, FUBP3 / RFU, TP53 / Fold change vs veh, TP53 / RFU, TNKS2 / Fold change vs veh, TNKS2 / RFU, ZFP14 / Fold change vs veh, ZFP14 / RFU, ACTR2 / Fold change vs veh, ACTR2 / RFU, PPP3R1 / Fold change vs veh, PPP3R1 / RFU, PIK3R1 / Fold change vs veh, PIK3R1 / RFU, HNRNPA1 / Fold change vs veh, HNRNPA1 / RFU, RNF170 / Fold change vs veh, RNF170 / RFU, ZNF28 / Fold change vs veh, ZNF28 / RFU, RNGTT / Fold change vs veh, RNGTT / RFU, OGT / Fold change vs veh, OGT / RFU, BRD1 / Fold change vs veh, BRD1 / RFU, MARS / Fold change vs veh, MARS / RFU, ZNF655 / Fold change vs veh, ZNF655 / RFU, FAHD1 / Fold change vs veh, FAHD1 / RFU, BDP1 / Fold change vs veh, BDP1 / RFU, LRRCC1 / Fold change vs veh, LRRCC1 / RFU, ARID1A / Fold change vs veh, ARID1A / RFU, ZNF146 / Fold change vs veh, ZNF146 / RFU, ZNF330 / Fold change vs veh, ZNF330 / RFU, GPN3 / Fold change vs veh, GPN3 / RFU, C9orf123 / Fold change vs veh, C9orf123 / RFU, N4BP2L2 / Fold change vs veh, N4BP2L2 / RFU, ARFIP1 / Fold change vs veh, ARFIP1 / RFU, FAM179B / Fold change vs veh, FAM179B / RFU, BCL10 / Fold change vs veh, BCL10 / RFU, UHRF1BP1L / Fold change vs veh, UHRF1BP1L / RFU, BET1 / Fold change vs veh, BET1 / RFU, CNOT2 / Fold change vs veh, CNOT2 / RFU, ZNF268 / Fold change vs veh, ZNF268 / Fold change vs veh, ZNF507 / RFU, DGCR2 / Fold change vs veh, DGCR2 / RFU, WDSUB1 / Fold change vs veh, WDSUB1 / Fold change vs veh, HSP90B1 /// MIR3652 / RFU, ADSS / Fold change vs veh, ADSS / RFU, GK / Fold change vs veh, GK / RFU, ZNF148 / Fold change vs veh, ZNF148 / RFU, TAF9 / Fold change vs veh, TAF9 / RFU, SLC1A5 / Fold change vs veh, SLC1A5 / RFU, SLMO2 / Fold change vs veh, SLMO2 / RFU, ABCC4 / Fold change vs veh, ABCC4 / RFU, LOC101060439 /// RAP1B / Fold change vs veh, LOC101060439 /// RAP1B / RFU, RFX7 / Fold change vs veh, RFX7 / RFU, GTPBP10 / Fold change vs veh, GTPBP10 / RFU, CNEP1R1 / Fold change vs veh, CNEP1R1 / RFU, BIVM-ERCC5 /// ERCC5 / Fold change vs veh, BIVM-ERCC5 /// ERCC5 / RFU, ILF3 / Fold change vs veh, ILF3 / RFU 11762660_at / Fold change /veh 11762660_at / RFU VCAN (11757783_s_at) / Fold change /veh VCAN (11757783_s_at) / RFU DDX43 (11728927_at) / Fold change /veh DDX43 (11728927_at) / RFU KRT8 (11758188_x_at) / Fold change /veh KRT8 (11758188_x_at) / RFU NKD1 (11759106_at) / Fold change /veh NKD1 (11759106_at) / RFU SRD5A1 (11742802_a_at) / Fold change /veh SRD5A1 (11742802_a_at) / RFU TPSAB1 /// TPSB2 (11721975_s_at) / Fold change /veh TPSAB1 /// TPSB2 (11721975_s_at) / RFU GSTM3 (11746129_a_at) / Fold change /veh GSTM3 (11746129_a_at) / RFU IL23R (11737362_x_at) / Fold change /veh IL23R (11737362_x_at) / RFU TMEM51 (11727254_a_at) / Fold change /veh TMEM51 (11727254_a_at) / RFU PIWIL2 (11732686_x_at) / Fold change /veh PIWIL2 (11732686_x_at) / RFU ORM1 (11744905_x_at) / Fold change /veh ORM1 (11744905_x_at) / RFU CCDC152 (11743942_at) / Fold change /veh CCDC152 (11743942_at) / RFU ECM1 (11717891_a_at) / Fold change /veh ECM1 (11717891_a_at) / RFU IL23R (11748794_a_at) / Fold change /veh IL23R (11748794_a_at) / RFU TNFAIP8L3 (11732012_x_at) / Fold change /veh TNFAIP8L3 (11732012_x_at) / RFU MBOAT4 (11741988_at) / Fold change /veh MBOAT4 (11741988_at) / RFU 11764193_at / Fold change /veh 11764193_at / RFU TMEM53 (11763286_at) / Fold change /veh TMEM53 (11763286_at) / RFU MAGEB2 (11727129_at) / Fold change /veh MAGEB2 (11727129_at) / RFU TMEM200A (11744735_a_at) / Fold change /veh TMEM200A (11744735_a_at) / RFU CCDC152 (11751479_a_at) / Fold change /veh CCDC152 (11751479_a_at) / RFU FAM211A (11726209_a_at) / Fold change /veh FAM211A (11726209_a_at) / RFU RGS16 (11746705_a_at) / Fold change /veh RGS16 (11746705_a_at) / RFU VCAN (11755009_s_at) / Fold change /veh VCAN (11755009_s_at) / RFU RHOB (11743442_s_at) / Fold change /veh RHOB (11743442_s_at) / RFU RGS16 (11720943_a_at) / Fold change /veh RGS16 (11720943_a_at) / RFU RGS16 (11720944_at) / Fold change /veh RGS16 (11720944_at) / RFU, VPS4B / Fold change vs veh, VPS4B / RFU, CREB1 / Fold change vs veh, CREB1 / RFU, DNAJC13 / Fold change vs veh, DNAJC13 / RFU, GNAQ / Fold change vs veh, GNAQ / RFU, CDK5R1 / Fold change vs veh, CDK5R1 / RFU, ZRANB3 / Fold change vs veh, ZRANB3 / RFU, CUL4A / Fold change vs veh, CUL4A / RFU, CCNY / Fold change vs veh, CCNY / RFU, UFL1 / Fold change vs veh, UFL1 / RFU, COG3 / Fold change vs veh, COG3 / RFU, DIAPH2 / Fold change vs veh, DIAPH2 / RFU, SKA2 / Fold change vs veh, SKA2 / RFU, AFF3 / Fold change vs veh, AFF3 / RFU, LMF1 / Fold change vs veh, LMF1 / RFU, IPO11 / Fold change vs veh, IPO11 / RFU, DFFB / Fold change vs veh, DFFB / RFU, FOXP1 / Fold change vs veh, FOXP1 / RFU, CARD8 / Fold change vs veh, CARD8 / RFU, STRN3 / Fold change vs veh, STRN3 / RFU, ADK / Fold change vs veh, ADK / RFU, RASSF2 / Fold change vs veh, RASSF2 / RFU, WIPF1 / Fold change vs veh, WIPF1 / RFU, LARP1B / Fold change vs veh, LARP1B / RFU, RASA1 / Fold change vs veh, RASA1 / RFU, RB1 / Fold change vs veh, RB1 / RFU, PPFIA1 / Fold change vs veh, PPFIA1 / RFU, MAT2A / Fold change vs veh, MAT2A / RFU, CCT5 / Fold change vs veh, CCT5 / RFU, WDR92 / Fold change vs veh, WDR92 / RFU, CUX1 / Fold change vs veh, CUX1 / RFU, TTC7A / Fold change vs veh, TTC7A / RFU, TMEM135 / Fold change vs veh, TMEM135 / RFU, DEPTOR / Fold change vs veh, DEPTOR / RFU, CPM / Fold change vs veh, CPM / RFU, DNAJB6 / Fold change vs veh, DNAJB6 / RFU, CACNA2D3 / Fold change vs veh, CACNA2D3 / RFU, DTX4 / Fold change vs veh, DTX4 / RFU, TFCP2 / Fold change vs veh, TFCP2 / RFU, GMCL1 /// GMCL1P1 / Fold change vs veh, GMCL1 /// GMCL1P1 / RFU, AEBP2 / Fold change vs veh, AEBP2 / RFU, SNHG1 /// SNORD22 /// SNORD25 /// SNORD26 /// SNORD27 /// SNORD28 /// SNORD29 /// SNORD31 / Fold change vs veh, SNHG1 /// SNORD22 /// SNORD25 /// SNORD26 /// SNORD27 /// SNORD28 /// SNORD29 /// SNORD31 / Fold change (Aza/veh), C12orf56 (ProbeSet 11735607_a_at) / Fold change (ACY-1035/veh), C12orf56 (ProbeSet 11735607_a_at) / Fold change (Aza/veh), FGFR1OP (ProbeSet 11751329_s_at) / Fold change (ACY-1035/veh), FGFR1OP (ProbeSet 11751329_s_at) / Fold change (Aza/veh), VPS36 (ProbeSet 11739960_a_at) / Fold change (ACY-1035/veh), VPS36 (ProbeSet 11739960_a_at) / RFU SYPL1 (11715823_x_at) / Fold change /veh SYPL1 (11715823_x_at) / RFU IGFBP7 (11715501_s_at) / Fold change /veh IGFBP7 (11715501_s_at) / RFU REEP3 (11722064_at) / Fold change /veh REEP3 (11722064_at) / RFU IGLL1 (11728026_x_at) / Fold change /veh IGLL1 (11728026_x_at): dose or concentration left out as unconfirmed. The assay is classed as cell-based, human. The conditions noted are these: ProbeSet 11763166_a_at; LIST B.

With `Nc1ncn([C@@H]2O[C@H](CO)[C@@H](O)[C@H]2O)c(=O)n1` [azacitidine], the “Fold change vs veh, MARS” value worked out at 0.85.
